Measurements reported in ChEMBL document CHEMBL1138906, “Development of sulfonamide compounds as potent methionine aminopeptidase type II inhibitors with antiproliferative properties” (Bioorg Med Chem Lett, 2006).

Columns and labels:
HMEC = assay: cells; settings: Homo sapiens
Description: Antiproliferative activity against HMVEC

[1] = Protein binding in rat plasma at 10 uM at pH 7.4; format: ADME, cell-free; settings: read-out: PPB (converted)
[2] = target: Methionine aminopeptidase (Pyrococcus furiosus (strain ATCC 43587 / DSM 3638 / JCM 8422 / Vc1), UniProt P56218); assay: Inhibition of Pyrococcus furiosus MetAP
[3] = target: T1, Methionine aminopeptidase 2 (Homo sapiens, UniProt P50579); assay: Inhibition of MetAP2
Aminopeptidase N = Aminopeptidase N (Homo sapiens, UniProt P15144); assay: Inhibition of AP-M
[4] = Inhibition of AP; design: species or system Homo sapiens
[5] = target: T1, Methionine aminopeptidase 2; assay: Inhibition of MetAP2 in presence of 40 mg/ml human serum albumin
Xaa-Pro aminopeptidase 1 = Xaa-Pro aminopeptidase 1 (Homo sapiens, UniProt Q9NQW7); assay: Inhibition of AP1
[6] = target: Methionine aminopeptidase 1 (Homo sapiens, UniProt P53582); assay: Inhibition of MetAP1

T1 sequence (P50579 whole entry): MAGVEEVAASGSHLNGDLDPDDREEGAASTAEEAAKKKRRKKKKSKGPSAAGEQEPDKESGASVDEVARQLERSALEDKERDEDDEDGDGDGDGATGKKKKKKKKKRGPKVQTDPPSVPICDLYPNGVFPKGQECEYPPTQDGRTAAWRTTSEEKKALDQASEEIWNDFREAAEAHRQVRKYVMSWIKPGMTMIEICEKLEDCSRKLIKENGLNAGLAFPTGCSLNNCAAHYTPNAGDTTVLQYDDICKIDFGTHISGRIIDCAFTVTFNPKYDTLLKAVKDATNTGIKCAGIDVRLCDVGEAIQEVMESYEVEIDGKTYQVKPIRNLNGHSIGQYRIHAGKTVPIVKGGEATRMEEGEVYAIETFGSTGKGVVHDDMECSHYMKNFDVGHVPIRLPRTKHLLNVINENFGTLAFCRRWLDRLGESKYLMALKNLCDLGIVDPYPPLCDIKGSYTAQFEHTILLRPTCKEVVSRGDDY
Sequence of Xaa-Pro aminopeptidase 1 (Q9NQW7 whole entry): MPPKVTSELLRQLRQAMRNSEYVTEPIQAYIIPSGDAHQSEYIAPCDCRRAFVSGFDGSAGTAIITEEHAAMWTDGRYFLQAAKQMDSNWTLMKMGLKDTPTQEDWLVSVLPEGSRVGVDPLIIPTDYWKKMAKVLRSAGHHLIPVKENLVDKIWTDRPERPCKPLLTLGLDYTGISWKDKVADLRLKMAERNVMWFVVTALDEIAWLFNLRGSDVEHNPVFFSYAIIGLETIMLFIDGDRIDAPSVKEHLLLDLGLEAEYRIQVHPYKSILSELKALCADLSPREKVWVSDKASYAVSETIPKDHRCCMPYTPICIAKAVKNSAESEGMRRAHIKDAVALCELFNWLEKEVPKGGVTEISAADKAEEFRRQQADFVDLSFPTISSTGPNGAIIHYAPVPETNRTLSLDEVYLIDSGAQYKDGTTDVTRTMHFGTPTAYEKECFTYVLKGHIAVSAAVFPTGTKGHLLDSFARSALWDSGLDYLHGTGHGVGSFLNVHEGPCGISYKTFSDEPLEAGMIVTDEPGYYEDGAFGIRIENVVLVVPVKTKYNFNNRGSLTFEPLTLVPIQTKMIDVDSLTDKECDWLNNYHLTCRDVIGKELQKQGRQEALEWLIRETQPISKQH
Sequence of Methionine aminopeptidase (P56218 whole entry): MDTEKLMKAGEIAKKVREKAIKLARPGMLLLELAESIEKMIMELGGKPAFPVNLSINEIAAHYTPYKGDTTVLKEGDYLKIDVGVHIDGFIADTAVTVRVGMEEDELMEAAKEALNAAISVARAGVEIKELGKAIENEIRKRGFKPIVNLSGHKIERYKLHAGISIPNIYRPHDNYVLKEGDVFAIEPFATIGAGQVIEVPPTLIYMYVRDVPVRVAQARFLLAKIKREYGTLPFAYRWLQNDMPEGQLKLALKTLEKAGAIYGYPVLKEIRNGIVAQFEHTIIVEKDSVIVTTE
Sequence of Aminopeptidase N (P15144 whole entry): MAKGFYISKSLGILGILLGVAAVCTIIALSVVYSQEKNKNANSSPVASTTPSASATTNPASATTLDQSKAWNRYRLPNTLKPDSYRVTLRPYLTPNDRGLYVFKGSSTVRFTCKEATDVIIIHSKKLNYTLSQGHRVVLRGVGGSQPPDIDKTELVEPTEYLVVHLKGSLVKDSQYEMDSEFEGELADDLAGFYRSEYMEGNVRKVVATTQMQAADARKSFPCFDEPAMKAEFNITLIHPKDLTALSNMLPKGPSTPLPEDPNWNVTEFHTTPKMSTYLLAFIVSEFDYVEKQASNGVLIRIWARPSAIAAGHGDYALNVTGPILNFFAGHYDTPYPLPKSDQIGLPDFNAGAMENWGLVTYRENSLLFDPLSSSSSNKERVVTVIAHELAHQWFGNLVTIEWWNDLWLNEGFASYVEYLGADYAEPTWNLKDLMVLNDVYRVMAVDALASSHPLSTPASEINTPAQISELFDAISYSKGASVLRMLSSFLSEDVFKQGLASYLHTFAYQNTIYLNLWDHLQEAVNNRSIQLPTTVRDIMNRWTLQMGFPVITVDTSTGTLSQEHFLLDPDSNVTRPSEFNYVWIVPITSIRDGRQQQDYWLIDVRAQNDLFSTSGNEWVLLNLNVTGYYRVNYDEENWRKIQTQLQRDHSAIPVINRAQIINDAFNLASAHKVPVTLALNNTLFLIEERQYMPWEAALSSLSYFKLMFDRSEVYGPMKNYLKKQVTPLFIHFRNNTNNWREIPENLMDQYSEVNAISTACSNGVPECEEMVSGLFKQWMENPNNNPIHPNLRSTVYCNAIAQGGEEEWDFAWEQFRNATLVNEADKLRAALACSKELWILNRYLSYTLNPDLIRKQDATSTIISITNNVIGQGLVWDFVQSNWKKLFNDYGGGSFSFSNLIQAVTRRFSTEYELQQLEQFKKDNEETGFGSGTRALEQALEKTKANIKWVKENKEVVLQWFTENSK

IC50 (HMEC)	fraction unbound at 10 µM [1]	Compound	also measured
60000 nM	–	CCCc1ccc(NS(=O)(=O)c2ccccc2)c(C(=O)O)c1	–
400 nM	–	Cc1cc(C)c(NS(=O)(=O)c2ccccc2)c(C(=O)O)c1	–
300 nM	0.019	Cc1ccc(NS(=O)(=O)c2ccc(Cl)cc2)c(C(=O)O)c1	–
130 nM	–	C[C@H]1CCCc2ccc(NS(=O)(=O)c3ccc(F)cc3)c(C(=O)O)c21	–
500 nM	0.008	O=C(O)c1c(NS(=O)(=O)c2ccc(F)cc2)ccc2ccccc12	–
3000 nM	–	O=C(O)c1cc(Br)ccc1NS(=O)(=O)c1ccc(Cl)cc1	–
150 nM	–	CC1=CCCc2ccc(NS(=O)(=O)c3ccc(F)cc3)c(C(=O)O)c21	–
10000 nM	0.002	CCc1ccc(NS(=O)(=O)c2ccccc2)c(C(=O)O)c1	–
500 nM	0.002	O=C(O)c1c(NS(=O)(=O)c2ccccc2)ccc2ccccc12	IC50 [2]: > 100000 nM; IC50 [3]: 19 nM; IC50 (Aminopeptidase N): > 100000 nM; IC50 [4]: > 100000 nM; IC50 [5]: 3800 nM; IC50 (Xaa-Pro aminopeptidase 1): > 100000 nM; IC50 [6]: 47000 nM
2000 nM	–	O=C(O)c1cc(Br)ccc1NS(=O)(=O)c1cccc2nsnc12	IC50 [3]: 3900 nM; IC50 [5]: > 100000 nM
100 nM	0.003	Cc1ccc(NS(=O)(=O)c2ccccc2)c(C(=O)O)c1	–
180 nM	–	O=C(O)c1c(NS(=O)(=O)c2ccc(F)cc2)ccc2c1CCCC2	–
100000 nM	–	CCCCc1ccc(NS(=O)(=O)c2ccccc2)c(C(=O)O)c1	–
